Key:
Format in all cases: in vivo
[1] = test system: Veronica; assay: Post-emergence test/greenhouse; details: after three weeks
Description: (§1) • Solvent: 5 parts by weight of acetone • Emulsifier: 1 part by weight of alkylaryl polyglycol ether
(§2) To produce a suitable preparation of active compound, 1 part by weight of active compound is mixed with the stated amount of solvent, the stated amount of emulsifier is added and the concentrate is diluted with water to the desired concentration.
(§3) Test plants which have a height of 5–15 cm are sprayed with the preparation of the active compound in such a way as to apply the particular amounts of active compound desired per unit area.
(§4) After three weeks, the degree of damage to the plants is rated in % damage by comparison with the development of the untreated control.
(§5) The figures denote: • 0%=no effect (like untreated control) • 100%=total destruction

[2] = test system: Polygonum; assay: Post-emergence test/greenhouse; details: after three weeks
Description: as §1, §2, §3, §4, §5

[3] = test system: Chenopodium; assay: Post-emergence test/greenhouse; details: after three weeks
Description: as §1, §2, §3, §4, §5

[4] = test system: Amaranthus; assay: Post-emergence test/greenhouse; details: after three weeks
Description: as §1, §2, §3, §4, §5

[5] = test system: Wheat; assay: Post-emergence test/greenhouse; details: after three weeks
Description: as §1, §2, §3, §4, §5

[6] = test system: Datura; assay: Post-emergence test/greenhouse; details: after three weeks
Description: as §1, §2, §3, §4, §5

[7] = test system: Chenopodium; assay: Pre-emergence test/greenhouse; details: after three weeks
Description: as §1, §2
(§6) Seeds of the test plants are sown in normal soil. After 24 hours, the soil is watered or sprayed with the preparation of the active compound. It is advantageous to keep the amount of water per unit area constant. The concentration of the active compound in the preparation is immaterial, only the amount of active compound applied per unit area matters.
as §4, §5

[8] = test system: Sunflower; assay: Pre-emergence test/greenhouse; details: after three weeks
Description: as §1, §2, §6, §4, §5

[9] = test system: Galinsoga; assay: Pre-emergence test/greenhouse; details: after three weeks
Description: as §1, §2, §6, §4, §5

[10] = test system: Abutilon; assay: Pre-emergence test/greenhouse; details: for % damage Abutilon: after three weeks; for activity against Abutilon (% damage): application rate between 125 and 500 g/ha, span over the named compounds
Description: as §1, §2, §6, §4, §5

[11] = test system: Solanum; assay: Pre-emergence test/greenhouse; details: after three weeks
Description: as §1, §2, §6, §4, §5

[12] = test system: Maize; assay: Pre-emergence test/greenhouse; details: after three weeks
Description: as §1, §2, §6, §4, §5

Cc1cnn(-c2ccccc2)c(=O)c1Br [(B), 4-Bromo-5-methyl-2-phenyl-pyridazin-3-one, reference compound]
% damage Veronica ([1]; 250 g ai/ha): 40% | % damage Polygonum ([2]; 250 g ai/ha): 50% | % damage Chenopodium ([3]; 250 g ai/ha): 50% | % damage Amaranthus ([4]; 250 g ai/ha): 30% | % damage Wheat ([5]; 250 g ai/ha): 30% | % damage Datura ([6]; 250 g ai/ha): 80% | % damage Chenopodium ([7]; 500 g ai/ha): 50% | % damage Sunflower ([8]; 500 g ai/ha): 0% | % damage Galinsoga ([9]; 500 g ai/ha): 30% | % damage Abutilon ([10]; 500 g ai/ha): 0% | % damage Solanum ([11]; 500 g ai/ha): 50% | % damage Maize ([12]; 500 g ai/ha): 0%

C#CC(C)Oc1cc(-n2ncc(C)cc2=O)c(F)cc1C#N (stereo not drawn) [Example 8, 2-(2-fluoro-4-cyano-5-but-1-ine-3-yl-oxy-phenyl)-5-methyl-pyridazin-3-one]
% damage Veronica ([1]; 60 g ai/ha): 100% | % damage Polygonum ([2]; 60 g ai/ha): 100% | % damage Chenopodium ([3]; 60 g ai/ha): 95% | % damage Amaranthus ([4]; 60 g ai/ha): 90% | % damage Wheat ([5]; 60 g ai/ha): 0% | % damage Datura ([6]; 60 g ai/ha): 100% | % damage Chenopodium ([7]; 250 g ai/ha): 100% | % damage Sunflower ([8]; 250 g ai/ha): 0% | % damage Galinsoga ([9]; 250 g ai/ha): 100% | % damage Abutilon ([10]; 250 g ai/ha): 100% | activity against Abutilon (% damage) [10]: 100% | % damage Solanum ([11]; 250 g ai/ha): 100% | % damage Maize ([12]; 250 g ai/ha): 0%

C#CC(C)Oc1cc(-n2nc(C)ccc2=O)c(F)cc1C#N (stereo not drawn) [Example 16]
% damage Veronica ([1]; 60 g ai/ha): 90% | % damage Polygonum ([2]; 60 g ai/ha): 95% | % damage Chenopodium ([3]; 60 g ai/ha): 95% | % damage Amaranthus ([4]; 60 g ai/ha): 100% | % damage Wheat ([5]; 60 g ai/ha): 5% | % damage Datura ([6]; 60 g ai/ha): 100% | % damage Chenopodium ([7]; 500 g ai/ha): 100% | % damage Sunflower ([8]; 500 g ai/ha): 20% | % damage Galinsoga ([9]; 500 g ai/ha): 100% | % damage Abutilon ([10]; 500 g ai/ha): 100% | activity against Abutilon (% damage) [10]: 100% | % damage Solanum ([11]; 500 g ai/ha): 100% | % damage Maize ([12]; 500 g ai/ha): 10%

Cc1cnn(-c2cc(F)c(C#N)cc2F)c(=O)c1 [Example 3, 2-(2,5-difluoro-4-cyano-phenyl)-5-methyl-pyridazin-3-one]
% damage Sunflower ([8]; 250 g ai/ha): 0% | % damage Galinsoga ([9]; 250 g ai/ha): 100% | % damage Abutilon ([10]; 250 g ai/ha): 100% | activity against Abutilon (% damage) [10]: 100% | % damage Solanum ([11]; 250 g ai/ha): 90% | % damage Maize ([12]; 250 g ai/ha): 0%

CCS(=O)(=O)Nc1cc(-n2nc(C)ccc2=O)c(F)cc1C#N [Example 15]
% damage Veronica ([1]; 250 g ai/ha): 95% | % damage Polygonum ([2]; 250 g ai/ha): 80% | % damage Chenopodium ([3]; 250 g ai/ha): 95% | % damage Amaranthus ([4]; 250 g ai/ha): 100% | % damage Wheat ([5]; 250 g ai/ha): 5% | % damage Datura ([6]; 250 g ai/ha): 90% | % damage Chenopodium ([7]; 500 g ai/ha): 100% | % damage Sunflower ([8]; 500 g ai/ha): 0% | % damage Galinsoga ([9]; 500 g ai/ha): 80% | % damage Abutilon ([10]; 500 g ai/ha): 100% | activity against Abutilon (% damage) [10]: 100% | % damage Solanum ([11]; 500 g ai/ha): 95% | % damage Maize ([12]; 500 g ai/ha): 0%

Cc1cnn(-c2cc(OC(C)C)c(C#N)cc2F)c(=O)c1 [Example 36]
% damage Chenopodium ([7]; 250 g ai/ha): 100% | % damage Galinsoga ([9]; 250 g ai/ha): 90% | % damage Abutilon ([10]; 250 g ai/ha): 100% | activity against Abutilon (% damage) [10]: 100% | % damage Solanum ([11]; 250 g ai/ha): 100% | % damage Maize ([12]; 250 g ai/ha): 10%

Nc1cnn(-c2ccccc2)c(=O)c1Cl [(A), 5-Amino-4-chloro-2-phenyl-pyridazin-3-one, reference compound]
% damage Chenopodium ([7]; 500 g ai/ha): 50% | % damage Sunflower ([8]; 500 g ai/ha): 100% | % damage Abutilon ([10]; 500 g ai/ha): 20% | % damage Solanum ([11]; 500 g ai/ha): 40% | % damage Maize ([12]; 500 g ai/ha): 0%

CCS(=O)(=O)Nc1cc(-n2ncc(NC)c(Cl)c2=O)c(F)cc1C#N [Example 25]
% damage Chenopodium ([7]; 500 g ai/ha): 90% | % damage Galinsoga ([9]; 500 g ai/ha): 100% | % damage Abutilon ([10]; 500 g ai/ha): 100% | activity against Abutilon (% damage) [10]: 100% | % damage Solanum ([11]; 500 g ai/ha): 60% | % damage Maize ([12]; 500 g ai/ha): 0%

C#CC(CC)Oc1cc(-n2ncc(C)cc2=O)c(F)cc1C#N (stereo not drawn) [Example 35]
% damage Veronica ([1]; 60 g ai/ha): 95% | % damage Polygonum ([2]; 60 g ai/ha): 90% | % damage Chenopodium ([3]; 60 g ai/ha): 95% | % damage Amaranthus ([4]; 60 g ai/ha): 95% | % damage Wheat ([5]; 60 g ai/ha): 20% | % damage Datura ([6]; 60 g ai/ha): 100% | % damage Chenopodium ([7]; 250 g ai/ha): 100% | % damage Galinsoga ([9]; 250 g ai/ha): 100% | % damage Abutilon ([10]; 250 g ai/ha): 100% | activity against Abutilon (% damage) [10]: 100% | % damage Solanum ([11]; 250 g ai/ha): 100% | % damage Maize ([12]; 250 g ai/ha): 0%

C#CCOc1cc(-n2ncc(N(C)C)c(Cl)c2=O)c(F)cc1C#N [Example 41]
% damage Veronica ([1]; 250 g ai/ha): 100% | % damage Polygonum ([2]; 250 g ai/ha): 100% | % damage Chenopodium ([3]; 250 g ai/ha): 90% | % damage Amaranthus ([4]; 250 g ai/ha): 60% | % damage Wheat ([5]; 250 g ai/ha): 20% | % damage Datura ([6]; 250 g ai/ha): 100% | % damage Chenopodium ([7]; 125 g ai/ha): 100% | % damage Sunflower ([8]; 125 g ai/ha): 0% | % damage Galinsoga ([9]; 125 g ai/ha): 100% | % damage Abutilon ([10]; 125 g ai/ha): 100% | activity against Abutilon (% damage) [10]: 100% | % damage Solanum ([11]; 125 g ai/ha): 100% | % damage Maize ([12]; 125 g ai/ha): 10%

C#CCOc1cc(-n2ncc(C)cc2=O)c(F)cc1C#N [Example 37]
% damage Veronica ([1]; 125 g ai/ha): 100% | % damage Polygonum ([2]; 125 g ai/ha): 100% | % damage Chenopodium ([3]; 125 g ai/ha): 100% | % damage Amaranthus ([4]; 125 g ai/ha): 100% | % damage Wheat ([5]; 125 g ai/ha): 20% | % damage Datura ([6]; 125 g ai/ha): 100%

C#CCOc1cc(-n2nc(C)ccc2=O)c(F)cc1C#N [Example 7, 2-(2-fluoro-4-cyano-5-propargyloxy-phenyl)-6-methyl-pyridazin-3-one]
% damage Chenopodium ([7]; 250 g ai/ha): 100% | % damage Sunflower ([8]; 250 g ai/ha): 20% | % damage Galinsoga ([9]; 250 g ai/ha): 95% | % damage Abutilon ([10]; 250 g ai/ha): 100% | activity against Abutilon (% damage) [10]: 100% | % damage Solanum ([11]; 250 g ai/ha): 100% | % damage Maize ([12]; 250 g ai/ha): 0%

CCS(=O)(=O)Nc1cc(-n2ncc(C)cc2=O)c(F)cc1C#N [Example 31]
% damage Veronica ([1]; 60 g ai/ha): 90% | % damage Polygonum ([2]; 60 g ai/ha): 90% | % damage Chenopodium ([3]; 60 g ai/ha): 80% | % damage Amaranthus ([4]; 60 g ai/ha): 100% | % damage Wheat ([5]; 60 g ai/ha): 5% | % damage Datura ([6]; 60 g ai/ha): 100% | % damage Sunflower ([8]; 250 g ai/ha): 0% | % damage Galinsoga ([9]; 250 g ai/ha): 80% | % damage Abutilon ([10]; 250 g ai/ha): 100% | activity against Abutilon (% damage) [10]: 100% | % damage Solanum ([11]; 250 g ai/ha): 100% | % damage Maize ([12]; 250 g ai/ha): 0%

CCS(=O)(=O)Nc1cc(-n2ncc(C)cc2=O)c(Cl)cc1Cl [Example 34]
% damage Chenopodium ([7]; 500 g ai/ha): 100% | % damage Sunflower ([8]; 500 g ai/ha): 20% | % damage Galinsoga ([9]; 500 g ai/ha): 100% | % damage Abutilon ([10]; 500 g ai/ha): 100% | activity against Abutilon (% damage) [10]: 100% | % damage Solanum ([11]; 500 g ai/ha): 90% | % damage Maize ([12]; 500 g ai/ha): 0%

C#CC(CC)Oc1cc(-n2nc(C)ccc2=O)c(F)cc1C#N (stereo not drawn) [Example 29]
% damage Chenopodium ([7]; 500 g ai/ha): 100% | % damage Sunflower ([8]; 500 g ai/ha): 0% | % damage Galinsoga ([9]; 500 g ai/ha): 100% | % damage Abutilon ([10]; 500 g ai/ha): 100% | activity against Abutilon (% damage) [10]: 100% | % damage Solanum ([11]; 500 g ai/ha): 100% | % damage Maize ([12]; 500 g ai/ha): 0%
